Experimental data as given in ChEMBL document CHEMBL4052585 (J Med Chem, 2017).
Values after ≈ are worked out from the molar mass of the structure shown.

Tests used:
[1] = biological target: T1, Mitogen-activated protein kinase kinase kinase 14 (Homo sapiens, UniProt Q99558); test: Inhibition of NIK (unknown origin) after 1 to 2 hrs by ADP-FP assay
physchem = conditions: buffer, pH 7.4
[2] = biological target: PI3-kinase p110-delta/p85-alpha (Homo sapiens, UniProt O00329); test: Inhibition of N-terminal His6-tagged recombinant full-length human p110delta/untagged recombinant full length human p85alpha expressed in baculovirus infected Sf21 insect cells using PIP2:3PS lipid substrate after 120 mins by ADP-Glo assay
HEK293 = test: Cytotoxicity against HEK293 cells assessed as effect on cell viability after 24 hrs by HSV-TK reporter assay; format: cell-based; conditions: Homo sapiens, HEK293, 24 h
[3] = biological target: T1, Mitogen-activated protein kinase kinase kinase 14; test: Inhibition of NIK in human HeLa cells assessed as decrease in antilymphotoxin-beta receptor antibody-stimulated p52 translocation from cytoplasm to nucleus after 5 hrs; format: cell-based
[4] = biological target: T1, Mitogen-activated protein kinase kinase kinase 14; test: Inhibition of NIK (unknown origin) expressed in HEK293 cells assessed as decrease in NFkappaB signal after 24 hrs by dual glo luciferase reporter gene assay; format: cell-based
[5] = Apparent permeability across MDCK cells at 100 uM; format: ADME, cell-based, Canis lupus familiaris; conditions: dog
[6] = Protein binding in human plasma; format: ADME, cell-free; conditions: read-out: PPB (converted)
[7] = Plasma clearance in cynomolgus monkey; format: ADME, Macaca fascicularis
[8] = Volume of distribution in Sprague-Dawley rat; format: ADME; conditions: in vivo
[9] = Volume of distribution in cynomolgus monkey; format: ADME, Macaca fascicularis; conditions: in vivo
[10] = Plasma clearance in Sprague-Dawley rat; format: ADME
[11] = Oral bioavailability in Sprague-Dawley rat at 5 mg/kg; format: ADME, organism-based; conditions: in vivo
[12] = Thermodynamic solubility of compound at pH 7.4; format: physicochemical; conditions: buffer, read-out: Therm_solubility
[13] = biological target: T1, Mitogen-activated protein kinase kinase kinase 14; test: Binding affinity to NIK (unknown origin) by SPR method
[14] = Oral bioavailability in beagle dog at 5 mg/kg; format: ADME, organism-based, Canis lupus familiaris; conditions: in vivo
[15] = Volume of distribution in beagle dog; format: ADME, Canis lupus familiaris; conditions: in vivo
[16] = Plasma clearance in beagle dog; format: ADME, Canis lupus familiaris

T1 sequence (Q99558 whole entry): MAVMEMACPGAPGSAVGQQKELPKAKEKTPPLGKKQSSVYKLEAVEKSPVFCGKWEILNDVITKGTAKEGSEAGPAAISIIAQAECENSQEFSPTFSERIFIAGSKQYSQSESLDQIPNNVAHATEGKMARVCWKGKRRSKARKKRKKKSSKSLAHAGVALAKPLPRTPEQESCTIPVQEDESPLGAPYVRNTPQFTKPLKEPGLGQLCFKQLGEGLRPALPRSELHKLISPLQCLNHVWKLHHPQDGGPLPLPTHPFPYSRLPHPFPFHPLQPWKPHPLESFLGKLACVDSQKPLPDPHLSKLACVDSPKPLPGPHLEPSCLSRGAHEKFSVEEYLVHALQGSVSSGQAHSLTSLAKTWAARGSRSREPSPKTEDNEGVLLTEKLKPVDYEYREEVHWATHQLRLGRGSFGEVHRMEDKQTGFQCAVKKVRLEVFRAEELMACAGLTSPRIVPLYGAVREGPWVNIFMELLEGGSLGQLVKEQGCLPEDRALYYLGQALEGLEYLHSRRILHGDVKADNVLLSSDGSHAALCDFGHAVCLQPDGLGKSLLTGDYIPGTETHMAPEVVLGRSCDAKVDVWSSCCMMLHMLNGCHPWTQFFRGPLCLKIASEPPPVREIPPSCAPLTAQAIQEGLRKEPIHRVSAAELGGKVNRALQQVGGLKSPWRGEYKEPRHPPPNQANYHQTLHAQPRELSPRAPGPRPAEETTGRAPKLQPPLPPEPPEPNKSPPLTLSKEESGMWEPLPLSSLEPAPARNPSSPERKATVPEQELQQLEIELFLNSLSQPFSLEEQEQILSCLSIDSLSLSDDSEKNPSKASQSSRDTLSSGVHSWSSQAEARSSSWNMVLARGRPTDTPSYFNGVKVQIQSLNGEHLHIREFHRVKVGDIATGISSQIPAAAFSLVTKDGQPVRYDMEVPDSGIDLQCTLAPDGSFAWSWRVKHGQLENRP
Chain of PI3-kinase p110-delta/p85-alpha (P27986 whole entry): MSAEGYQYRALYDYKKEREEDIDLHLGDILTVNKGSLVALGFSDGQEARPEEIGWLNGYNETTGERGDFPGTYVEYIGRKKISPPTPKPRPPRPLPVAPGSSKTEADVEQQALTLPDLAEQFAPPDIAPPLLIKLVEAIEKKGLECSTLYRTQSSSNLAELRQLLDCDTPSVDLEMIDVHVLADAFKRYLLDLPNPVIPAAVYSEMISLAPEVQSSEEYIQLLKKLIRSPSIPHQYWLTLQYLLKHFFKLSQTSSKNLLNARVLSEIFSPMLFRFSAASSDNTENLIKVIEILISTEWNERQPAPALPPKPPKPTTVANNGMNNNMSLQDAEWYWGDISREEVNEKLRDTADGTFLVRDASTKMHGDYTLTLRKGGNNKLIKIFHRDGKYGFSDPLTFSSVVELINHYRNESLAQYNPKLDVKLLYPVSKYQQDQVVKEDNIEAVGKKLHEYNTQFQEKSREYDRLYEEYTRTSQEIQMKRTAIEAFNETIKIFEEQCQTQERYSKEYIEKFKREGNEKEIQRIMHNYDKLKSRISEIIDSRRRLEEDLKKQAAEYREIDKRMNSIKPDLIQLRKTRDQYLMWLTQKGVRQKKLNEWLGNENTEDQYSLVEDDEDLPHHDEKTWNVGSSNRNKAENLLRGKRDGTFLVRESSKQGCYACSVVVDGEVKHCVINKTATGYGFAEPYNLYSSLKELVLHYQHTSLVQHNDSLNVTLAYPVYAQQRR
Chain of PI3-kinase p110-delta/p85-alpha (O00329 whole entry): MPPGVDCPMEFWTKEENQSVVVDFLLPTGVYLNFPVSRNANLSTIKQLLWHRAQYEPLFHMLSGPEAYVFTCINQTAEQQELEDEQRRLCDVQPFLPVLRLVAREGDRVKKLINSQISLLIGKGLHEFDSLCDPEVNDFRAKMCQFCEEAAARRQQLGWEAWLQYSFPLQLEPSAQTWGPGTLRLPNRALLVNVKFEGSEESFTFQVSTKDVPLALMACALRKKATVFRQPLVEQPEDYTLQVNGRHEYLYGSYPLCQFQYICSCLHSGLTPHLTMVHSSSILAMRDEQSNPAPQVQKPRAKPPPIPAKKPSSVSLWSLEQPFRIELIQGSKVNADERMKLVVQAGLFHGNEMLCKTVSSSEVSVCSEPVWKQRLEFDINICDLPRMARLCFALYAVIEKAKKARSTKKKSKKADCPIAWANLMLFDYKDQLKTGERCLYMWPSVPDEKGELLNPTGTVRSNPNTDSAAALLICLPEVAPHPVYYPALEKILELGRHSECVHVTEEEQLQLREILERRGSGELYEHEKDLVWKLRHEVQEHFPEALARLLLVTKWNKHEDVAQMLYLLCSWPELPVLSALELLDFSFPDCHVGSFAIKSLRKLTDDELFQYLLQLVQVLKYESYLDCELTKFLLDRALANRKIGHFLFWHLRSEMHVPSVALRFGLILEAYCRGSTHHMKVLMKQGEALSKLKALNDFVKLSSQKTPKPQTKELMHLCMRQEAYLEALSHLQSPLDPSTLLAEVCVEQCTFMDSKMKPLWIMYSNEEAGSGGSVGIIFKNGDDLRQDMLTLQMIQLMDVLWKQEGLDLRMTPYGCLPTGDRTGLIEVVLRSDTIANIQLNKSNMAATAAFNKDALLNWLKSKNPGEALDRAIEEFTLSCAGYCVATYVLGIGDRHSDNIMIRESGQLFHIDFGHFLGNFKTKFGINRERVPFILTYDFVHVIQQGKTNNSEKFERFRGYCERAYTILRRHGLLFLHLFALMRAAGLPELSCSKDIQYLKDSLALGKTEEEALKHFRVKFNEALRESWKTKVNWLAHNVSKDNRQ

SMILES | Ki [1] [nM] | logD (physchem) | Ki [2] [nM] | other results
NC(=O)c1ccc2c(n1)-c1sccc1CCO2 | 1280 | 2.5 |  | 
CC(C)(O)C#Cc1cc2c(cc1F)OCCn1c-2nc(C(N)=O)c1C#N | 201 | 1.6 | > 1000 | 
Cc1cc([C@](C)(O)C#Cc2cc3c(cc2F)OCCn2cc(C(N)=O)nc2-3)no1 |  | 1.1 | 47 | IC50 (HEK293): > 20 µM; IC50 [3]: 607 nM; IC50 [4]: 156 nM
Cc1cc([C@](C)(O)C#Cc2cc3c(cc2F)C2CC(C2)n2cc(C(N)=O)nc2-3)no1 | 0.4 | 3.3 | > 1000 | Papp at 100 µM [5]: 10.1 ×10⁻⁶ cm/s; fraction unbound [6]: 0.09; clearance [7]: 13 mL/min/kg; IC50 (HEK293): > 20 µM; Vd [8]: 0.84 L/kg; Vd [9]: 1.9 L/kg; clearance [10]: 24 mL/min/kg; bioavailability [11]: 27%; IC50 [3]: 199 nM; solubility thermodynamic [12]: 32 µg/mL (≈ 78.7 µM); IC50 [4]: 102 nM
CC(C)(O)C#Cc1cc2c(cc1F)OCCn1cc(C(N)=O)nc1-2 | 36 | 1.7 |  | 
NC(=O)c1cccn1Cc1ccccc1Cl |  |  |  | Kd [13]: 69 µM
CNC(=O)c1c(C(N)=O)nc2n1CCOc1ccc(C#C[C@@](C)(O)c3cc(C)on3)cc1-2 | 0.47 | 3 | > 1000 | Papp at 100 µM [5]: 7.5 ×10⁻⁶ cm/s; fraction unbound [6]: 0.06; bioavailability [14]: 140%; Vd [15]: 1.1 L/kg; clearance [7]: 21 mL/min/kg; IC50 (HEK293): 13 µM; Vd [8]: 1.4 L/kg; Vd [9]: 0.9 L/kg; clearance [10]: 7 mL/min/kg; clearance [16]: 7 mL/min/kg; bioavailability [11]: 51%; IC50 [3]: 67 to 87 nM; solubility thermodynamic [12]: 9 µg/mL (≈ 20.7 µM); IC50 [4]: 40 nM
CN1CC[C@](O)(C#Cc2cc3c(cc2F)OCCn2cc(C(N)=O)nc2-3)C1=O |  | 0.94 |  | 
CN(C)C(=O)C(C)(O)C#Cc1cc2c(cc1F)OCCn1cc(C(N)=O)nc1-2 (centres undefined) | 986 | 1.4 |  | 
CN(C)C(=O)c1c(C(N)=O)nc2n1CCOc1cc(F)c(C#CC(C)(C)O)cc1-2 |  | 1.4 | > 1000 | 
C[C@H]1Cn2cc(C(N)=O)nc2-c2cc(C#CC(C)(C)O)ccc2O1 |  |  | > 1000 | 
NC(=O)c1cn2c(n1)-c1cc(C#CC3(O)COC3)c(F)cc1OCC2 | 4280 | 1.2 |  | 
CC(C)(O)C#Cc1ccc2c(c1)-c1nc(C(N)=O)cn1CCO2 | 310 | 1.4 | 320 | 
CC(C)(O)C#Cc1ccc2c(c1)-c1nc(C(N)=O)sc1C(F)(F)CO2 | 40 |  | > 1000 | 
C[C@@H]1Cn2cc(C(N)=O)nc2-c2cc(C#CC(C)(C)O)ccc2O1 |  |  | > 1000 | 
CC(C)(O)C#Cc1cc2c(cc1F)OCCn1c-2nc(C(N)=O)c1C1CC1 | 41 | 1.9 | > 1000 | 
CN1CC[C@@](O)(C#Cc2cc3c(cc2F)OCCn2cc(C(N)=O)nc2-3)C1=O |  | 0.74 |  | 
CC(C)(O)C#Cc1ccc2c(c1)-c1nc(C(N)=O)sc1C(O)CO2 (racemic) | 101 |  | > 1000 | 
Cc1c(C(N)=O)nc2n1CCOc1cc(F)c(C#CC(C)(C)O)cc1-2 | 35.5 | 2.2 | > 1000 | 

Second part, led by results:

Ki [1] [nM] | logD (physchem) | Ki [2] [nM] | SMILES | other results
1.5 | 2.4 |  | CC(O)(C#Cc1cc2c(cc1F)OCCn1cc(C(N)=O)nc1-2)c1nccs1 (racemic) | 
28 | 2.4 | 216 | CC(C)(O)C#Cc1ccc2c(c1)-c1nc(C(N)=O)sc1CCO2 | 
20.2 | 3.4 |  | NC(=O)c1cn2c(n1)-c1cc(C#CC3(O)CCC3)c(F)cc1OCC2 | 
3 | 1.5 |  | CN1CCCC(O)(C#Cc2cc3c(cc2F)OCCn2cc(C(N)=O)nc2-3)C1=O (racemic) | 
3.2 | 1.4 |  | CC(O)(C#Cc1cc2c(cc1F)OCCn1cc(C(N)=O)nc1-2)c1cccnn1 (racemic) | 
7 | 1.8 | > 1000 | CC(C)(O)C#Cc1cc2c(cc1F)OCCn1c-2nc(C(N)=O)c1-c1cn[nH]c1 | 
20 |  | > 1000 | CC(C)(O)C#Cc1ccc2c(c1)-c1nc(C(N)=O)cn1C1CC2C1 | 
8.7 |  |  | CC(O)(C#Cc1cc2c(cc1F)OCCn1cc(C(N)=O)nc1-2)CF (racemic) | 
9.9 |  | > 1000 | Cn1nccc1Cc1c(C(N)=O)nc2n1CCOc1cc(F)c(C#CC(C)(C)O)cc1-2 | 
2 | 2.5 | > 1000 | CNC(=O)c1c(C(N)=O)nc2n1CCOc1cc(F)c(C#CC(C)(C)O)cc1-2 | 
2.9 |  | > 1000 | CC(C)(O)C#Cc1cc2c(cc1F)C1CC(C1)n1cc(C(N)=O)nc1-2 | 
7.5 | 3.4 | > 1000 | CC(C)(O)C#Cc1cc2c(cc1F)OCCn1c-2nc(C(N)=O)c1Cc1ccccc1F | 
